Measurements: the supplement of paper PMC8960247
Structures can show the parent of a compound that is named as a salt. ± gives the standard error.

What was measured:
621-102 (TSC2-deficient) = test: relative viability vs DMSO; higher = less cytotoxic; settings: serum: 10% FBS, 72 h
621-103 (TSC2-rescued) = test: as above; settings: serum: 10% FBS, 72 h
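Note: immortalized renal angiomyolipoma cells stably carrying empty vector or TSC2, dosed in 384-well plates in DMEM, viability normalized to vehicle-treated wells within each plate.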

Nc1ccccc1NC(=O)c1ccc(CNC(=O)OCc2cccnc2)cc1 [MS-275]
relative viability (621-102 (TSC2-deficient); 0.0001 µM): 103 ± 3.7% | relative viability (621-102 (TSC2-deficient); 0.001 µM): 109.1 ± 0.37% | relative viability (621-102 (TSC2-deficient); 0.01 µM): 96.5 ± 1% | relative viability (621-102 (TSC2-deficient); 0.1 µM): 82.7 ± 3.8% | relative viability (621-102 (TSC2-deficient); 1 µM): 83 ± 2.6% | relative viability (621-102 (TSC2-deficient); 10 µM): 64.11 ± 0.47% | relative viability (621-103 (TSC2-rescued); 0.0001 µM): 100.1 ± 0.8% | relative viability (621-103 (TSC2-rescued); 0.001 µM): 99.4 ± 1.4% | relative viability (621-103 (TSC2-rescued); 0.01 µM): 98.42 ± 0.37% | relative viability (621-103 (TSC2-rescued); 0.1 µM): 95.9 ± 1.2% | relative viability (621-103 (TSC2-rescued); 1 µM): 81.09 ± 0.74% | relative viability (621-103 (TSC2-rescued); 10 µM): 39.1 ± 0.61%

COC(=O)C1=C(C)NC(C)=C(C(=O)OCCN2CCN(C(c3ccccc3)c3ccccc3)CC2)C1c1cccc([N+](=O)[O-])c1 (stereo not drawn) [Manidipine HCl (CV-4093)]
relative viability (621-102 (TSC2-deficient); 0.0001 µM): 110.7 ± 1% | relative viability (621-102 (TSC2-deficient); 0.001 µM): 110.4 ± 0.56% | relative viability (621-102 (TSC2-deficient); 0.01 µM): 104.3 ± 0.49% | relative viability (621-102 (TSC2-deficient); 0.1 µM): 109 ± 2% | relative viability (621-102 (TSC2-deficient); 1 µM): 107 ± 4% | relative viability (621-102 (TSC2-deficient); 10 µM): 94.55 ± 0.56% | relative viability (621-103 (TSC2-rescued); 0.0001 µM): 90.9 ± 2% | relative viability (621-103 (TSC2-rescued); 0.001 µM): 90 ± 1.3% | relative viability (621-103 (TSC2-rescued); 0.01 µM): 98 ± 1.7% | relative viability (621-103 (TSC2-rescued); 0.1 µM): 100.85 ± 0.1% | relative viability (621-103 (TSC2-rescued); 1 µM): 89.9 ± 1.2% | relative viability (621-103 (TSC2-rescued); 10 µM): 74.2 ± 1.2%

COC(=O)C1=C(C)NC(C)=C(C(=O)OCCN2CCN(C(c3ccccc3)c3ccccc3)CC2)C1c1cccc([N+](=O)[O-])c1 (stereo not drawn) [Manidipine]
relative viability (621-102 (TSC2-deficient); 0.0001 µM): 101 ± 4% | relative viability (621-102 (TSC2-deficient); 0.001 µM): 102 ± 1.7% | relative viability (621-102 (TSC2-deficient); 0.01 µM): 99.9 ± 1.5% | relative viability (621-102 (TSC2-deficient); 0.1 µM): 97.7 ± 1.7% | relative viability (621-102 (TSC2-deficient); 1 µM): 93.8 ± 1.4% | relative viability (621-102 (TSC2-deficient); 10 µM): 96.95 ± 0.61% | relative viability (621-103 (TSC2-rescued); 0.0001 µM): 109 ± 3.1% | relative viability (621-103 (TSC2-rescued); 0.001 µM): 108 ± 2.9% | relative viability (621-103 (TSC2-rescued); 0.01 µM): 106 ± 2% | relative viability (621-103 (TSC2-rescued); 0.1 µM): 108 ± 2.5% | relative viability (621-103 (TSC2-rescued); 1 µM): 103 ± 2.2% | relative viability (621-103 (TSC2-rescued); 10 µM): 101 ± 6.2%

CNCCCC12CCC(c3ccccc31)c1ccccc12 [Maprotiline HCl]
relative viability (621-102 (TSC2-deficient); 0.0001 µM): 124.2 ± 0.15% | relative viability (621-102 (TSC2-deficient); 0.001 µM): 114 ± 4.2% | relative viability (621-102 (TSC2-deficient); 0.01 µM): 109 ± 5.4% | relative viability (621-102 (TSC2-deficient); 0.1 µM): 107 ± 3.5% | relative viability (621-102 (TSC2-deficient); 1 µM): 107.1 ± 0.36% | relative viability (621-102 (TSC2-deficient); 10 µM): 82.2 ± 3.8% | relative viability (621-103 (TSC2-rescued); 0.0001 µM): 101 ± 1.2% | relative viability (621-103 (TSC2-rescued); 0.001 µM): 102 ± 1.2% | relative viability (621-103 (TSC2-rescued); 0.01 µM): 99.43 ± 0.5% | relative viability (621-103 (TSC2-rescued); 0.1 µM): 95.4 ± 4.2% | relative viability (621-103 (TSC2-rescued); 1 µM): 87.6 ± 2.2% | relative viability (621-103 (TSC2-rescued); 10 µM): 64.61 ± 0.13%

Cc1nnc(C(C)C)n1[C@H]1C[C@H]2CC[C@@H](C1)N2CC[C@H](NC(=O)C1CCC(F)(F)CC1)c1ccccc1 [Maraviroc (Selzentry)]
relative viability (621-102 (TSC2-deficient); 0.0001 µM): 94.8 ± 3.3% | relative viability (621-102 (TSC2-deficient); 0.001 µM): 106 ± 1.5% | relative viability (621-102 (TSC2-deficient); 0.01 µM): 107 ± 2.3% | relative viability (621-102 (TSC2-deficient); 0.1 µM): 101 ± 2.6% | relative viability (621-102 (TSC2-deficient); 1 µM): 108.3 ± 0.76% | relative viability (621-102 (TSC2-deficient); 10 µM): 107 ± 1.8% | relative viability (621-103 (TSC2-rescued); 0.0001 µM): 100.6 ± 0.78% | relative viability (621-103 (TSC2-rescued); 0.001 µM): 101 ± 2.7% | relative viability (621-103 (TSC2-rescued); 0.01 µM): 99.264 ± 0.066% | relative viability (621-103 (TSC2-rescued); 0.1 µM): 103 ± 2.9% | relative viability (621-103 (TSC2-rescued); 1 µM): 98.1 ± 1.4% | relative viability (621-103 (TSC2-rescued); 10 µM): 97.2 ± 1.1%

Cc1ccc(NC(=O)c2ccc(CN3CCN(C)CC3)cc2)cc1Nc1nc(-c2cccnc2)cs1 [Masitinib (AB1010)]
relative viability (621-102 (TSC2-deficient); 0.0001 µM): 116 ± 1.7% | relative viability (621-102 (TSC2-deficient); 0.001 µM): 103 ± 4.6% | relative viability (621-102 (TSC2-deficient); 0.01 µM): 103 ± 6.5% | relative viability (621-102 (TSC2-deficient); 0.1 µM): 115.4 ± 0.45% | relative viability (621-102 (TSC2-deficient); 1 µM): 107 ± 2.1% | relative viability (621-102 (TSC2-deficient); 10 µM): 53.4 ± 14% | relative viability (621-103 (TSC2-rescued); 0.0001 µM): 104.3 ± 0.28% | relative viability (621-103 (TSC2-rescued); 0.001 µM): 105 ± 1.6% | relative viability (621-103 (TSC2-rescued); 0.01 µM): 107.1 ± 0.95% | relative viability (621-103 (TSC2-rescued); 0.1 µM): 103 ± 2.9% | relative viability (621-103 (TSC2-rescued); 1 µM): 104 ± 1.3% | relative viability (621-103 (TSC2-rescued); 10 µM): 36.5 ± 2.2%

Cc1[nH]c(=O)c(C#N)cc1-c1ccncc1 [Milrinone (Primacor)]
relative viability (621-102 (TSC2-deficient); 0.0001 µM): 109 ± 3.1% | relative viability (621-102 (TSC2-deficient); 0.001 µM): 114 ± 2.9% | relative viability (621-102 (TSC2-deficient); 0.01 µM): 110 ± 2% | relative viability (621-102 (TSC2-deficient); 0.1 µM): 103.33 ± 0.049% | relative viability (621-102 (TSC2-deficient); 1 µM): 107 ± 3.9% | relative viability (621-102 (TSC2-deficient); 10 µM): 107 ± 1.4% | relative viability (621-103 (TSC2-rescued); 0.0001 µM): 95.74 ± 0.27% | relative viability (621-103 (TSC2-rescued); 0.001 µM): 91.11 ± 0.53% | relative viability (621-103 (TSC2-rescued); 0.01 µM): 95.5 ± 9.2% | relative viability (621-103 (TSC2-rescued); 0.1 µM): 91.8 ± 3.8% | relative viability (621-103 (TSC2-rescued); 1 µM): 91.27 ± 0.77% | relative viability (621-103 (TSC2-rescued); 10 µM): 89.3 ± 2.9%

O=C1c2c(O)ccc(O)c2C(=O)c2c(NCCNCCO)ccc(NCCNCCO)c21 [Mitoxantrone]
relative viability (621-102 (TSC2-deficient); 0.0001 µM): 79.5 ± 1.5% | relative viability (621-102 (TSC2-deficient); 0.001 µM): 70.5 ± 3.2% | relative viability (621-102 (TSC2-deficient); 0.01 µM): 65.8 ± 4.4% | relative viability (621-102 (TSC2-deficient); 0.1 µM): 33.21 ± 0.054% | relative viability (621-102 (TSC2-deficient); 1 µM): 5.07 ± 0.86% | relative viability (621-102 (TSC2-deficient); 10 µM): 2.13 ± 0.16% | relative viability (621-103 (TSC2-rescued); 0.0001 µM): 94.9 ± 2.3% | relative viability (621-103 (TSC2-rescued); 0.001 µM): 87.32 ± 0.1% | relative viability (621-103 (TSC2-rescued); 0.01 µM): 90.41 ± 0.1% | relative viability (621-103 (TSC2-rescued); 0.1 µM): 36.95 ± 0.31% | relative viability (621-103 (TSC2-rescued); 1 µM): 8.71 ± 0.34% | relative viability (621-103 (TSC2-rescued); 10 µM): 3.19 ± 0.27%

NC(=O)c1ncn([C@@H]2O[C@H](CO)[C@@H](O)[C@H]2O)c1O [Mizoribine]
relative viability (621-102 (TSC2-deficient); 0.0001 µM): 102 ± 2.1% | relative viability (621-102 (TSC2-deficient); 0.001 µM): 98.3 ± 1.2% | relative viability (621-102 (TSC2-deficient); 0.01 µM): 102 ± 1.2% | relative viability (621-102 (TSC2-deficient); 0.1 µM): 100.8 ± 0.97% | relative viability (621-102 (TSC2-deficient); 1 µM): 99.9 ± 2.9% | relative viability (621-102 (TSC2-deficient); 10 µM): 92.9 ± 2.9% | relative viability (621-103 (TSC2-rescued); 0.0001 µM): 104.1 ± 0.62% | relative viability (621-103 (TSC2-rescued); 0.001 µM): 99.8 ± 2% | relative viability (621-103 (TSC2-rescued); 0.01 µM): 99.1 ± 2.2% | relative viability (621-103 (TSC2-rescued); 0.1 µM): 105 ± 3.8% | relative viability (621-103 (TSC2-rescued); 1 µM): 98.1 ± 2.5% | relative viability (621-103 (TSC2-rescued); 10 µM): 97.4 ± 2.2%
